From patent publication US20140314904A1, “PRE-SLAUGHTER DIET INCLUDING METHIONINE” (ADISSEO FRANCE S.A.S., priority 2011, published 2014)

What was measured:
Format in all cases: in vivo, pig
slaughter pigs [1] = experiment: Cooking loss of pork chops; conditions: 7 days at 2° C., LS mean ± SEM
Excerpt: (§1) Twenty-one slaughter pigs ([Yorkshire×Swedish Landrace]×Hampshire) were raised on a commercial diet. Pigs were randomly assigned to one of three groups (n=7). The groups represented three feeding strategies, namely a Control group which received a standardized diet comprising 0.27% total methionine, and both a DLM and HMTBA group, receiving the same diet as the Control group throughout the feeding period, apart from the fact that they were fed a higher level of methionine (1.1% total methionine) during a seven day finishing period immediately prior to slaughter. The supplements were given in two forms, either as D L-methionine (DLM) or DL-2-hydroxy-4-methylthiobutanoic acid (HMTBA).
(§2) Pigs were slaughtered at a commercial slaughter house in Sweden after a resting time of 5 hours. At 45 minutes post mortem, pH (Knick portamess 751 pH-meter with an Ingold LOT glass electrode, Tech Instrumentering ApS, Denmark) and temperature (digital thermometer, Weber, Stephen Nordic, Denmark) were measured in the m. Longissimus dorsi (LD) at the level of the 10th rib. At 48 hours post mortem, the entire back was dissected from the carcass and transported under controlled conditions to the University of Copenhagen for further measurements.
(§3) Pork chops were cut perpendicular to the long axis of each LD muscle. Six 3 cm thick pork chops was sliced from each LD. Three were vacuum packed and three were packed in a high-oxygen modified atmosphere. The chops were placed in plastic trays (M71-43A white/PS; 195×144×43 mm in dimension; Frch Plast, Denmark) and placed in vacuum bags (EM-628862; O2 transmission rate=40-50 cm^3/m^2/24 h/bar, CO2 transmission rate=150 cm^3/m^2/24 h/bar, water-vapour transmission rate=2.6 g/m^2/24 h; LogiCon Nordic A/S, Denmark). The ambient air was removed from all vacuum bags using a vacuum machine (type, manufacturer, country). The bags intended for […] were first filled with a gas mixture (80% oxygen/20% carbon dioxide) before being sealed completely, whereas the bags intended for MAP were only partially sealed. […] (until 9 days post mortem). The gas composition was checked (CheckMate 9900, PBI Dansensor, Denmark) before packaging and again prior to opening, at the end of the simulated display period in order to check for leakage. The oxygen-enriched environment was well maintained (83.4%) throughout the display period for all MA packages.
(§4) Storage loss was determined as the weight loss percentage at the end of the display period (9 days post mortem) relative to the weight at the day of packaging (two days post mortem). The cooking loss was determined as the weight loss percentage between the pork chops before and after cooking. The results are given as the mean of the three pork chops in each meat pack.

[2] = test system: L. dorsi muscle of the pigs; experiment: sEMG peak-to-peak amplitude of L. dorsi muscle; conditions: 1 weeks dietary supplementation
Excerpt: This study used both a single and a double differential electrode configuration, with electrodes ([…] & […]; Blue Sensor, Medicotest […], Denmark) configured as described previously by Harrison et al. (Harrison, […]. Molsted, & E. M. Bartels. The uremic environment and muscle dysfunction in man and rat. Nephron. Vol 103: 33-42, 2006). Surface electromyography recordings were taken via an ML 132 amplifier connected to a ML780 PowerLab/[…] converter (AD Instruments, Chalgrove, Oxfordshire, UK) with a further connection to a MacBook Air with Chart v. 3.6.3/s Software, Peak Parameters and Spike Histogram extensions. […] Sampling speed was set to 40,000 per second. Differential recordings of sEMG signals were made via surface electrodes from the L. dorsi muscle as previously described by Andersen et al. (2008, Andersen […], Guy J H, Edwards S A & Harrison A P, Postnatal changes in electromyographic signals during piglet growth, and in relation to muscle fibre types. […] In brief, a bipolar differential electrode configuration, with disposable Ag-AgCl recording electromyography electrodes was attached to the exposed skin surface above the L. dorsi muscle, with a set inter-electrode distance of 16-19 mm (Andersen et al., 2008). […] The recorded sEMG signal was assessed in terms of peak-to-peak amplitude (mV) using Chart analysis software (AD Instruments, Chalgrove, Oxfordshire, UK).

slaughter pigs [3] = experiment: Storage loss of pork chops after display period; conditions: 7 days at 2° C., 1.1% total methionine for 7 days before slaughter, LS mean ± SEM
Excerpt: as §1, §2, §3, §4

pigs = experiment: Shear force (maximum load) after storage, Example 2; conditions: 9 days post mortem, P < 0.02
Experimental: The pigs were slaughtered at a commercial slaughter house in Sweden after a resting time of 5 h. At 45 minutes post mortem, pH (Knick portamess 751) and temperature (digital thermometer, Weber) were measured in the M. longissiumus dorsi at the level of the 10th rib. At 48 h post mortem, the entire loins were dissected from the carcasses and transported to the University of Copenhagen for further measurements. Ultimate pH was measured, as well as colour by Minolta L*a*b*. Dry matter content was determined by drying muscle samples at 105° C. for 24 h. Slices of 3 cm thickness were cut, measured and vacuum packed before being stored for a further 7 days at 2° C. At the end of the storage period samples were heated to an internal temperature of 75° C. After being cooled down, samples were stored cold at 2° C. until they were cut into slabs of 1 cm×1 cm×2.5 cm size for shear force measurement. For each animal, 8 specimens were measured and the mean maximum load was used for further analysis.

Structure (SMILES)	Cooking loss (slaughter pigs [1]; MAP (80% O2 + 20% CO2))	Cooking loss (slaughter pigs [1]; Vacuum)	Improvement in muscle growth/performance (sEMG peak-to-peak amplitude) cf CONT (untreated) levels [2]	Storage loss (slaughter pigs [3]; MAP (80% O2 + 20% CO2))	Storage loss (slaughter pigs [3]; Vacuum)	Maximum Load (pigs)	Change in sEMG peak-to-peak amplitude between pre and post groups ([2]; 60, 150, 200 Hz)
CSCCC(O)C(=O)O (racemic) [HMTBA, 2-hydroxy-4-(methylthio) butanoic acid]	18.49 ± 1.73 ^A g	21.35 ± 1.73 ^A g	~100%	6.37 ± 0.83 ^A, B g	4.63 ± 0.83 ^B g	37 N	–
CSCCC(N)C(=O)O (racemic) [DLM, DL-methionine]	15.82 ± 1.86 ^A g	21.52 ± 1.86 ^A g	–	9.34 ± 0.83 ^A g	4.56 ± 0.89 ^B g	34 N	clear improvement
